Assay results published in ChEMBL document CHEMBL1201862, “PubChem BioAssay data set” (2004).
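Grown in 96-well plates, cells were treated for 48 hours with each compound at five concentrations. Insufficient inhibition: endpoint recorded as highest concentration tested. GI50 marks 50% less growth.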 Calls of active or inactive are those of the source. No stated cut-off is given here; in the data, active = GI50 up to about 1.1 µM and inactive = higher.

What was measured:
Experiment in all cases: NCI-60 cell line screen, 48 h
786-0 = test system: 786-0
A498 = test system: A498
A549 = test system: A549
ACHN = test system: ACHN
CAKI-1 = test system: CAKI-1
COLO 205 = test system: COLO 205
DLD-1 = test system: DLD-1
DMS-114 = test system: DMS-114
DMS-273 = test system: DMS-273
EKVX = test system: EKVX
HCC 2998 = test system: HCC 2998
HCT-116 = test system: HCT-116
HCT-15 = test system: HCT-15
HOP-18 = test system: HOP-18
HOP-62 = test system: HOP-62
HOP-92 = test system: HOP-92
HT-29 = test system: HT-29
IGROV-1 = test system: IGROV-1
KM-20L2 = test system: KM-20L2
KM12 = test system: KM12
LOX IMVI = test system: LOX IMVI
LXFL 529 = test system: LXFL 529
M14 = test system: M14
M19-MEL = test system: M19-MEL
MOLT-4 = test system: MOLT-4
Malme-3M = test system: Malme-3M
NCI-H226 = test system: NCI-H226
NCI-H23 = test system: NCI-H23
NCI-H460 = test system: NCI-H460
OVCAR-3 = test system: OVCAR-3
OVCAR-4 = test system: OVCAR-4
OVCAR-5 = test system: OVCAR-5
OVCAR-8 = test system: OVCAR-8
RPMI-8226 = test system: RPMI-8226
RXF 393 = test system: RXF 393
RXF 631 = test system: RXF 631
SF-268 = test system: SF-268
SF-295 = test system: SF-295
SF-539 = test system: SF-539
SK-MEL-28 = test system: SK-MEL-28
SK-MEL-5 = test system: SK-MEL-5
SK-OV-3 = test system: SK-OV-3
SN12C = test system: SN12C
SNB-19 = test system: SNB-19
SNB-75 = test system: SNB-75
SNB-78 = test system: SNB-78
SR = test system: SR
SW-620 = test system: SW-620
TK-10 = test system: TK-10
U-251 = test system: U-251
UACC-257 = test system: UACC-257
UACC-62 = test system: UACC-62
UO-31 = test system: UO-31
XF498 = test system: XF498
CCRF-CEM = test system: CCRF-CEM
HL-60 = test system: HL-60
K562 = test system: K562

With `COc1cc2nc(Sc3c([N+](=O)[O-])ncn3C)[nH]c2cc1OC` the GI50 (786-0) was 71 µM (inactive), the GI50 (A498) was 78 µM (inactive) and the GI50 (A549) was 34.8 µM (inactive). The GI50 (ACHN) was 54.3 µM (inactive), the GI50 (CAKI-1) was 4.47 µM (inactive) and the GI50 (COLO 205) was 13.6 µM (inactive). For the same compound, the GI50 (DLD-1) was 14 µM (inactive), the GI50 (DMS-114) was 11.6 µM (inactive) and the GI50 (DMS-273) was 1.65 µM (inactive). For the same compound, the GI50 (EKVX) was 21.2 µM (inactive), the GI50 (HCC 2998) was 17.9 µM (inactive) and the GI50 (HCT-116) was 27.4 µM (inactive). The GI50 (HCT-15) was 19.4 µM, the GI50 (HOP-18) was > 100 µM (inactive) and the GI50 (HOP-62) was > 100 µM (inactive). The GI50 (HOP-92) was 16.5 µM (inactive), the GI50 (HT-29) was 41.7 µM (inactive) and the GI50 (IGROV-1) was 14.2 µM (inactive). For the same compound, the GI50 (KM-20L2) was 33.6 µM (inactive), the GI50 (KM12) was 46.7 µM (inactive) and the GI50 (LOX IMVI) was 41.6 µM (inactive). For the same compound, the GI50 (LXFL 529) was 12.4 µM (inactive), the GI50 (M14) was 87.5 µM (inactive) and the GI50 (M19-MEL) was 33.1 µM (inactive). For the same compound, the GI50 (MOLT-4) was 12.5 µM (inactive), the GI50 (Malme-3M) was 56.2 µM (inactive) and the GI50 (NCI-H226) was 28.3 µM (inactive). For the same compound, the GI50 (NCI-H23) was 26.1 µM (inactive), the GI50 (NCI-H460) was 49.9 µM (inactive) and the GI50 (OVCAR-3) was 46.8 µM (inactive). For the same compound, the GI50 (OVCAR-4) was 38.5 µM (inactive), the GI50 (OVCAR-5) was 98.6 µM (inactive) and the GI50 (OVCAR-8) was 15.1 µM (inactive). The GI50 (RPMI-8226) was 22.3 µM (inactive), the GI50 (RXF 393) was 16.1 µM (inactive) and the GI50 (RXF 631) was 1.74 µM (inactive). For the same compound, the GI50 (SF-268) was 19.2 µM (inactive), the GI50 (SF-295) was > 100 µM (inactive) and the GI50 (SF-539) was 18.6 µM (inactive). For the same compound, the GI50 (SK-MEL-28) was 20.5 µM (inactive), the GI50 (SK-MEL-5) was 18.9 µM (inactive) and the GI50 (SK-OV-3) was 79.4 µM (inactive). For the same compound, the GI50 (SN12C) was 16.3 µM (inactive), the GI50 (SNB-19) was 26.1 µM (inactive) and the GI50 (SNB-75) was 28.4 µM (inactive). The GI50 (SNB-78) was 34.8 µM (inactive), the GI50 (SR) was 13.3 µM (inactive) and the GI50 (SW-620) was 26 µM (inactive). The GI50 (TK-10) was 26.9 µM (inactive), the GI50 (U-251) was 31.3 µM (inactive) and the GI50 (UACC-257) was 28.6 µM (inactive). For the same compound, the GI50 (UACC-62) was 24.3 µM (inactive), the GI50 (UO-31) was 46 µM (inactive) and the GI50 (XF498) was 11 µM (inactive).

For `CCOC(=O)NC(=O)c1cn(CCCCCCCCCCC(=O)N2CCN(CCn3cc(C(=O)NC(=O)OCC)c(=O)[nH]c3=O)CC2)c(=O)[nH]c1=O`, the GI50 (786-0) was > 100 µM (inactive), the GI50 (A498) was > 100 µM (inactive) and the GI50 (A549) was > 100 µM (inactive). The GI50 (ACHN) was > 100 µM (inactive), the GI50 (CAKI-1) was > 100 µM (inactive) and the GI50 (CCRF-CEM) was > 100 µM (inactive). The GI50 (COLO 205) was > 100 µM (inactive), the GI50 (DLD-1) was > 100 µM (inactive) and the GI50 (DMS-114) was > 100 µM (inactive). The GI50 (DMS-273) was > 100 µM (inactive), the GI50 (EKVX) was > 100 µM (inactive) and the GI50 (HCC 2998) was > 100 µM (inactive). The GI50 (HCT-116) was > 100 µM (inactive), the GI50 (HCT-15) was over 100 µM and the GI50 (HL-60) was > 100 µM (inactive). The GI50 (HOP-18) was > 100 µM (inactive), the GI50 (HOP-62) was > 100 µM (inactive) and the GI50 (HOP-92) was > 100 µM (inactive). The GI50 (HT-29) was > 100 µM (inactive), the GI50 (IGROV-1) was > 100 µM (inactive) and the GI50 (K562) was > 100 µM (inactive). The GI50 (KM-20L2) was > 100 µM (inactive), the GI50 (LOX IMVI) was > 100 µM (inactive) and the GI50 (LXFL 529) was > 100 µM (inactive). For the same compound, the GI50 (M14) was > 100 µM (inactive), the GI50 (M19-MEL) was > 100 µM (inactive) and the GI50 (MOLT-4) was > 100 µM (inactive). For the same compound, the GI50 (NCI-H23) was > 100 µM (inactive), the GI50 (NCI-H460) was > 100 µM (inactive) and the GI50 (OVCAR-3) was > 100 µM (inactive). The GI50 (OVCAR-4) was > 100 µM (inactive), the GI50 (OVCAR-8) was > 100 µM (inactive) and the GI50 (RPMI-8226) was > 100 µM (inactive). For the same compound, the GI50 (RXF 393) was > 100 µM (inactive), the GI50 (RXF 631) was > 100 µM (inactive) and the GI50 (SF-295) was > 100 µM (inactive). For the same compound, the GI50 (SF-539) was > 100 µM (inactive), the GI50 (SK-MEL-28) was > 100 µM (inactive) and the GI50 (SK-MEL-5) was > 100 µM (inactive). The GI50 (SK-OV-3) was > 100 µM (inactive), the GI50 (SN12C) was > 100 µM (inactive) and the GI50 (SNB-19) was > 100 µM (inactive). The GI50 (SNB-75) was > 100 µM (inactive), the GI50 (SNB-78) was > 100 µM (inactive) and the GI50 (SW-620) was > 100 µM (inactive). For the same compound, the GI50 (TK-10) was > 100 µM (inactive), the GI50 (U-251) was > 100 µM (inactive) and the GI50 (UACC-257) was > 100 µM (inactive). For the same compound, the GI50 (UACC-62) was > 100 µM (inactive) and the GI50 (XF498) was > 100 µM (inactive).
